Assay: Hygroscopicity of the crystal form
Assay type: physicochemical
Settings: unless maintained at about 0% relative humidity the form comprises greater than 0.5 molecules of water per molecule of lopinavir
Description: The Type I hydrated crystal form of lopinavir comprising about 0.5 molecules of water per molecule of lopinavir is hygroscopic. Therefore, unless maintained under conditions of about 0% relative humidity, the Type I hydrated crystal form of lopinavir comprises greater than 0.5 molecules of water per molecule of lopinavir. If a Type I hydrated crystal form of lopinavir is dehydrated to below about 0.5 molecules of water per molecule of lopinavir, amorphous lopinavir is obtained.
The Type I crystal form of lopinavir comprising about 0.5 molecules of water per molecule of lopinavir has the powder X-ray diffraction pattern which appears in FIG. 1. The Type I crystal form of lopinavir comprising about 0.5 molecules of water per molecule of lopinavir has the solid state ^13C nuclear magnetic resonance spectrum, FT near infrared spectrum and FT mid infrared spectrum which appear in FIGS. 2, 3 and 4, respectively. The sample from which the infrared and nuclear magnetic resonance spectra were obtained may contain somewhat more than 0.5 molecules of water per molecule of lopinavir due to the hygroscopicity of the crystal form when the level of hydration is about 0.5 molecules of water per molecule of lopinavir.

For `Cc1cccc(C)c1OCC(=O)N[C@@H](Cc1ccccc1)[C@@H](O)C[C@H](Cc1ccccc1)NC(=O)[C@H](C(C)C)N1CCCNC1=O`, the hygroscopicity was “hygroscopic”.
